PMC9181938, “Fluorinated Analogues of Lepidilines A and C: Synthesis and Screening of Their Anticancer and Antiviral Activity” (Molecules, 2022)
Read-outs that look alike come from different tables or passages of the source.

Legend:
[1] = Cytotoxicity MTT assay (0.1–1000 µM), CC50; format: cell-based, Mus musculus; settings: Mus musculus, NCTC clone 929 cells, Table S2, range 0.1-1000 µM, NCTC clone 929; read-out: Cell line (CC50 M) NCTC clone 929
[2] = Cytotoxicity MTT assay (0.1–1000 µM), CC50; format: cell-based, Human; settings: human, HeLa cells
[3] = Cytotoxicity screening at 10 µM (MTT); format: cell-based, Cercopithecus aethiops; settings: Cercopithecus aethiops, Vero cells, read-out: Cell line (viability %) Vero
[4] = Cytotoxicity screening at 10 µM (MTT); format: cell-based, Macaca mulatta; settings: Macaca mulatta, LLC-MK2 cells, read-out: Cell line (viability %) LLC-MK2
[5] = Cytotoxicity screening at 10 µM (MTT); format: cell-based, Human; settings: human, MRC-5 cells, read-out: Cell line (viability %) MRC-5
[6] = test system: Encephalomyocarditis virus (EMCV); experiment: Antiviral screening at 10 µM; format: cell-based; settings: Cardiovirus A, EMCV-infected cells, read-out: Cell line (viability %) EMCV
How it was run: (§1)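 Infected Vero, LLC-MK2, NCTC 929 or HeLa cell monolayers (MOI 0.005; HPIV-3 MOI 0.01) were treated after 1-h adsorption with compounds at 10 µM (0.1% DMSO). Cultures were incubated at 37 °C until cytopathic effect was visible. Viral infection was scored by MTT assay (OD 550/670 nm), in triplicate.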

[7] = test system: Human adenovirus 5 (AdV5); experiment: Antiviral screening at 10 µM; format: cell-based; settings: Human mastadenovirus C, AdV5-infected cells, read-out: Cell line (viability %) AdV5
How it was run: as §1

[8] = test system: Human herpesvirus 1 (HSV-1); experiment: Antiviral screening at 10 µM; format: cell-based; settings: Human alphaherpesvirus 1, antiviral screening, HSV-1-infected cells, read-out: Cell line (viability %) HSV-1
How it was run: as §1

[9] = test system: Human parainfluenza virus type 3 (HPIV-3); experiment: Antiviral screening at 10 µM; format: cell-based; settings: Human respirovirus 3, antiviral screening, HPIV-3-infected cells, read-out: Cell line (viability %) HPIV-3
How it was run: as §1

Cc1c(C)n(Cc2ccccc2)c(=S)n1Cc1ccccc1 [Compound 10a]
CC50 at 48 h [1]: 46 ± 6.93 µM | CC50 at 48 h ([2]; MTT, 48 h, read-out: CC50 Cancer Cell Lines HeLa): < 20 µM | CC50 at 48 h ([2]; Table S2, range 0.1-1000 µM, read-out: Cell line (CC50 M) HeLa): 16.9 ± 2.19 µM | viability at 48 h, 10 µM [3]: 83.8% | viability at 48 h, 10 µM [4]: 64.9% | viability at 48 h, 10 µM [5]: 74.3% | viability at 10 µM [6]: 79.6% | viability at 10 µM [7]: 62% | viability at 10 µM [8]: 29.7% | viability at 10 µM [9]: 69.2%
